The record followed here is publication PMC9281089 (Journal of Translational Medicine, 2022).

Values joined by “and” are separate entries in the source; they are usually repeats but may differ in a detail not shown here. Equal values may be shown once. Where a name gives a salt, the structure may show the parent alone.

Data set [1] deals with SARS-CoV-2 S-protein RBD / ACE2 interaction (UniProt P0DTC2+Q9BYF1). Put plainly: biochemical. Details: species or system SARS-CoV-2 / human. As to conditions: EC50 (HTRF), inhibition of binding of S-RBD to ACE2. In general terms: TR-FRET usually uses a lanthanide donor and a delayed reading to cut background.

Compound `N=C(N)c1ccc2cc(OC(=O)c3ccc(N=C(N)N)cc3)ccc2c1` [Nafamostat mesylate, reference compound] showed a concentration for a half-maximal effect (EC50) in data set [1] of 11.3 µM.
As to `COc1ccc2c3ccnc4ccc(=O)n(c2c1)c43` [TS-984, 9-Methoxycanthin-6-one], the EC50 in data set [1] came out at 36.2 µM. Besides, in the data set on cells (compared with tannic acid and nafamostat mesilate), the “cytotoxicity (comparative)” value is given as “lower cytotoxicity”.
As for `O=C1c2ccccc2C(=O)c2ccccc21` [TS-1276, anthraquinone], in data set [1], the EC50 is 55.9 µM and 16.4 µM.
Turning to `O=C(OC[C@H]1O[C@@H](OC(=O)c2cc(O)c(O)c(OC(=O)c3cc(O)c(O)c(O)c3)c2)[C@H](OC(=O)c2cc(O)c(O)c(OC(=O)c3cc(O)c(O)c(O)c3)c2)[C@@H](OC(=O)c2cc(O)c(O)c(OC(=O)c3cc(O)c(O)c(O)c3)c2)[C@@H]1OC(=O)c1cc(O)c(O)c(OC(=O)c2cc(O)c(O)c(O)c2)c1)c1cc(O)c(O)c(OC(=O)c2cc(O)c(O)c(O)c2)c1` [tannic acid, reference compound], the cytotoxicity to cells entry with cells (at a high concentration (> 30 µM)) was “strong cytotoxicity”. Moreover, the “cytotoxicity at effective concentration” value with cells (when the effective concentration is applied) was “higher cytotoxicity that leads to cell death”.

What is called EC50 is the concentration needed to bring the measured effect to its halfway point. Read a high EC50 as weaker potency.
